Experimental data as given in patent US20250025445A1, “METHOD OF CARDIOPROTECTION” (Race Oncology LTD., priority 2021, published 2025).

Experiments:
[1] = Doxorubicin cardiotoxicity in mice: histologic cardiac fibrosis; format: in vivo; conditions: bisantrene co-administered with doxorubicin at 1:1 molar ratio; Day 21; relative to matched doses of doxorubicin
From the text: (§2) In particular, well established cardiotoxicity markers, including left ventricular fractional shortening, heart E/A ratio, left ventricular diastolic function, left ventricular dilatation, cardiac output, plasma triglyceride levels, plasma creatine kinase-MB (CK-MB), plasma LDH (lactate dehydrogenase) and plasma brain natriuretic peptide (BNP) were monitored over a period of up to 42 days following the start of treatments delivered weekly, four times (and therefore final treatment on day 21).
(§3) Treatments were delivered to mice intravenously on days 0, 7, 14 and 21. Mice underwent echocardiography measurements at days 0, 21 and 42 to determine LVEF, FS, EDV, ESV, CO, E wave, A wave, E′, E/A, and E/E′, and blood samples were taken at days 0, 21 and 42 to assay for cardiac troponin I levels, BNP levels, CK, LDH levels and triglycerides.

[2] = system: MDA-MB-231 breast cancer cells; assay: MDA-MB-231 breast cancer cell viability with Webb synergy analysis; format: cell-based, human
Protocol: Human breast cancer cell line NDA-MB-231 was cultured in a humidified chamber at 37° C. with 5% CO2 in DMEM supplemented with 10% foetal bovine serum (FBS), 2 mM L-glutamine and 2% HEPES. Cells were maintained adherent.

[3] = Doxorubicin cardiotoxicity in mice: blood tests
From the text: as §2, §3

[4] = system: tumor cells from 684 patients; conditions: breast, small cell lung, large cell lung, squamous cell lung, ovarian, pancreatic, renal, adrenal, head and neck, sarcoma, gastric, lymphoma and melanoma tumor cells; cited from earlier work
[5] = system: MCF7 breast cancer cells; assay: MCF7 breast cancer cell viability (CellTiter-Glo); format: cell-based, human; conditions: 72 hours
Protocol: Human breast adenocarcinoma (MCF7) cells were purchased from In Vitro Technologies (Victoria, Australia) and cultured according to manufacturer's recommendations using MCF7 growth media, Low glucose Dulbecco's Modified Eagle's medium (DMEM; Sigma-Aldrich, Australia) supplemented with 10% (v/v) foetal calf serum (Sigma-Aldrich) and 1% (v/v) Penicillin-Streptomycin (Sigma-Aldrich). Briefly, 1×10^6 MCF7 were seeded and grown in Corning® T75 flasks (Sigma-Aldrich) in an incubator at 37° C. under 5% CO2 conditions. At 80-90% confluency, MCF7 were washed with Dulbecco's Phosphate Buffered Saline (Sigma-Aldrich) for 30s at room temperature and followed by incubation with Trypsin-EDTA (Sigma-Aldrich) for 5 mins at 37° C. under 5% CO2 conditions. Trypsin solution was then neutralised with 1:1 volume of MCF7 growth media. The cell suspensions were then collected into Corning® 50 mL centrifuge tubes (Sigma-Aldrich) and centrifuged at 300×g for 10 mins at room temperature. The resulting supernatants were discarded and MCF7 pellets were resuspended with 5-10 mL of pre-warmed MCF7 growth media. Total viable cells were enumerated with Invitrogen™ Countess Cell Counter (Thermo Fisher Scientific, New South Wales, Australia) and 9×10^4 live MCF7 were seeded in triplicate into Corning® 96-well white polystyrene microplate (Sigma).
(§1) Dox, Dauno and Epi, were dissolved in sterile water to make a stock concentration of 20 mM, respectively, while Tz was dissolved in sterile PBS to a stock concentration of 100 μM. […] The concentrations were as follows 0 nM, 15.62 nM, 62.5 nM, 250 nM, 500 nM, 1 μM, 5 μM, and 10 μM. […] Vehicle controls were incubated with media supplemented with either sterile water or DMSO. […] This was repeated at 48 hours and 72 hours. […] Both FB23/2 and brequinar (MedChemExpress) were dissolved in dimethyl sulfoxide (DMSO; Sigma-Aldrich) to make a stock concentration of 40 mM and 20 mM respectively.

[6] = system: H929 multiple myeloma cells; assay: H929 multiple myeloma cell viability (CellTiter-Glo); format: cell-based, human; conditions: 72 hours, FIG. 4
Protocol: Human multiple myeloma NCI-H929 cells were cultured using RPMI-1640 growth media (Sigma-Aldrich), supplemented with 2 mM L-glutamine (Thermo Fisher Scientific), 10% (v/v) foetal calf serum (Sigma-Aldrich) and 0.05 mM 2-mercaptoethanol (Sigma-Aldrich). Briefly, 0.5×10^6 H929 were seeded and grown in Corning® T75 flasks (Sigma-Aldrich) in an incubator at 37° C. under 5% CO2 conditions. At 80-90% confluency, the cell suspension was then collected into Corning® 50 mL centrifuge tubes (Sigma-Aldrich) and centrifuged at 300×g for 10 mins at room temperature. The resulting supernatant were discarded and H929 pellet was resuspended with 5-10 mL of pre-warmed H929 growth media. Total viable cells were enumerated with Invitrogen™ Countess Cell Counter (Thermo Fisher Scientific, New South Wales, Australia) and 1×10^4 live H929 were seeded in triplicate into Corning® 96-well white polystyrene microplate (Sigma). […] The concentrations were as follows 0 nM, 15.62 nM, 62.5 nM, 250 nM, 500 nM, 1 μM, 5 μM, and 10 μM. […] Vehicle controls were incubated with media supplemented with either sterile water or DMSO. […] This was repeated at 48 hours and 72 hours. […] Both FB23/2 and brequinar (MedChemExpress) were dissolved in dimethyl sulfoxide (DMSO; […]

[7] = system: Primary Human Cardiac Myocytes (HCMs); assay: Primary human cardiomyocyte cell viability (CellTiter-Glo); format: cell-based
Protocol: Primary Human Cardiac Myocytes (HCMs) were purchased from PromoCell® (Heidelberg, Germany) and cultured according to manufacturer's recommendations using PromoCell® Myocyte growth media (5% [v/v] foetal calf serum, 0.5 ng/ml recombinant human epidermal growth factor, 2 ng/ml recombinant human basic fibroblast growth factor, 5 μg/ml recombinant human insulin) supplemented with 1% [v/v] Penicillin-Streptomycin [Sigma-Aldrich]). Briefly, 1×10^6 HCMs were seeded and grown in Corning® T75 flasks (Sigma-Aldrich, New South Wales, Australia) in an incubator at 37° C. under 5% CO2 conditions. At 80-90% confluency, HCMs were gently detached using the DetachKit (PromoCell®), collected into Corning® 50 mL centrifuge tubes (Sigma-Aldrich), and centrifuged at 300×g for 10 mins at room temperature. The resulting supernatant were discarded and HCM pellet was resuspended with 5-10 mL of pre-warmed Myocyte Growth Medium. Total viable cells were enumerated with Invitrogen™ Countess Cell Counter (Thermo Fisher Scientific, New South Wales, Australia) and 1×10^5 live HCMs were seeded in triplicate into Corning® 96-well white polystyrene microplate (Sigma).
as §1

## C(=NNC1=NCCN1)c1c2ccccc2c(C=NNC2=NCCN2)c2ccccc12 [bisantrene, 9,10-anthracenedicarboxaldehyde bis [(4,5-dihydro-1H-imidazol-2-yl)hydrazone]]
[1]
  histologic cardiac fibrosis: significantly decreased
[2]; bisantrene alone, FIGS. 8 to 10
  toxic effects against MDA-MB-231 breast cancer cells: concentration-dependent toxic effects
[2]; bisantrene with carfilzomib, Webb synergy analysis, FIG. 10C
  combined effect with carfilzomib on MDA-MB-231 cells: at least additive to, if not synergistic with
[2]; bisantrene with doxorubicin, Webb synergy analysis, FIGS. 8, 10A
  combined effect with doxorubicin on MDA-MB-231 cells: at least additive to, if not synergistic with
[2]; bisantrene with epirubicin, Webb synergy analysis, FIGS. 9, 10B
  combined effect with epirubicin on MDA-MB-231 cells: at least additive to, if not synergistic with
[3]; bisantrene 3.67 mg/kg + doxorubicin 5 mg/kg (Dox+Bis 1:1), day 21
  plasma CK-MB levels: kept CK-MB levels down at or near the vehicle-only control levels
[3]; bisantrene 3.67 mg/kg + doxorubicin 5 mg/kg (Dox+Bis 1:1), day 21 and day 42
  mitigation of doxorubicin-induced plasma triglyceride increases: significant mitigation
[3]; bisantrene 5.65 mg/kg + doxorubicin 4 mg/kg (Dox+Bis 80% of 1:2)
  mitigation of doxorubicin-induced plasma triglyceride increases: less effect
[3]; bisantrene 7.33 mg/kg + doxorubicin 5 mg/kg (Dox+Bis 1:2), day 21
  plasma CK-MB levels: kept CK-MB levels down at or near the vehicle-only control levels
[3]; bisantrene 7.33 mg/kg + doxorubicin 5 mg/kg (Dox+Bis 1:2), day 42
  mitigation of doxorubicin-induced plasma triglyceride increases: significant mitigation
[3]; bisantrene 7.33 mg/kg + doxorubicin 5 mg/kg (Dox: Bis 1:2), day 42 or day 21
  brain natriuretic peptide levels (mitigation of doxorubicin effects): not significant
[3]; bisantrene 7.33 mg/kg alone, day 21, vs vehicle-only control
  plasma triglycerides: slight (but insignificant) increase
[3]; bisantrene 7.33 mg/kg alone, day 42, vs vehicle-only control
  plasma triglycerides (increase): not at day 42
[4]
  activity in clonogenic assays: Activity in clonogenic assays from 684 patients was seen
[5]; 0-10 μM bisantrene alone, FIG. 3
  toxicity to MCF7 breast cancer cells: concentration-dependent toxicity
[5]; 0-10 μM bisantrene with 1 μM carfilzomib, FIG. 3
  interference with toxicity of carfilzomib to MCF7 cells: did not interfere with the toxicity
[5]; 0-10 μM bisantrene with 1 μM doxorubicin or 1 μM carfilzomib
  combined toxicity of bisantrene with doxorubicin or carfilzomib to MCF7 cells: additive toxicity
[5]; 0-10 μM bisantrene with 1 μM doxorubicin, FIG. 3
  interference with toxicity of doxorubicin to MCF7 cells: did not interfere with the toxicity
[6]; 0-5 μM bisantrene alone
  toxicity to H929 multiple myeloma cells: concentration-dependent toxicity
[6]; 0-5 μM bisantrene with 1 μM carfilzomib
  interference with toxicity of carfilzomib to H929 cells: did not interfere with the toxicity
[7]; 0-5 μM bisantrene with 1 μM carfilzomib, 24, 48, 72 hrs, FIG. 1
  protection of cardiomyocytes against toxicity of CFZ: concentration-dependent protection
[7]; 0-5 μM bisantrene with 1 μM doxorubicin, 24, 48, 72 hrs, FIG. 1
  protection of cardiomyocytes against toxicity of Dox: concentration-dependent protection
[7]; 1 μM bisantrene coadministered with bortezomib, 72 hours, FIG. 7
  rescue of bortezomib cardiomyocyte toxicity: significant rescue of cardiomyocyte toxicity
[7]; 1 μM bisantrene coadministered with carfilzomib, 72 hours, FIG. 7
  rescue of carfilzomib cardiomyocyte toxicity: significant rescue of cardiomyocyte toxicity
[7]; 1 μM bisantrene with 1 μM daunorubicin, 72 hours, FIG. 5
  rescue of daunorubicin cardiotoxicity on cardiomyocytes: cardiotoxicity rescue effects
[7]; 1 μM bisantrene with 1 μM epirubicin, 72 hours, FIG. 6
  rescue of epirubicin cardiotoxicity on cardiomyocytes: a trend toward statistical significance
[7]; 1 or 5 μM bisantrene with 1 μM doxorubicin and 500 nM trastuzumab, FIG. 2
  effect on combined toxicity of doxorubicin and trastuzumab to cardiomyocytes: reduced the combined toxicity
[7]; 1 or 5 μM bisantrene with 1 μM doxorubicin, FIG. 2
  effect of increasing bisantrene on loss of cardiomyocyte viability with doxorubicin alone: reduced loss of viability
[7]; agent alone (1 μM doxorubicin, 1 μM carfilzomib, 0-5 μM bisantrene), 24 hrs, 48 hrs and 72 hrs, FIG. 1
  toxicity (loss in cell viability) to cardiomyocytes: mild progressive toxicity
